From patent US10336984B2, “Method of molecular stress control” (CPSI Holdings LLC, priority 2010, dated 2019)
Entries after “also recorded” stand apart in the source; their conditions may differ. Like-named read-outs stand apart in the source and are kept apart here.

Experiments:
[1] = system: human hepatoma (C3A); type: cell-based
Source text: Samples were processed utilizing industry standard media (Roswell Park Memorial Institute, RPMI, media), cryo-protective agents and techniques. Cell survival response curves were plotted against varying concentrations of DMSO. Samples were frozen, thawed, cultured to allow for recovery, and then frozen again. This process was repeated 4 times (e.g. Freeze #1, Freeze #2, Freeze #3, Freeze #4) over experimental periods of several weeks (FIG. 8).
As the intent of cell-guard is to reduce the negative effects of stress response of cells during normothermic culture processing, a series of studies using the freeze stress model were conducted examining the potential of stress response modulation during recovery culture. The studies examined the effect of modulating the apoptotic cell death mechanism, caspase cascade, as well as mitochondrial oxidative stress pathways. While numerous studies have looked at caspase and free radical formation inhibition during stresses including freezing, no studies have been reported looking to the effect of post-processing manipulation.
As such, in FIG. 9, C3A samples were frozen using industry standard protocols in culture media+0%, 2%, 5%, and 10% DMSO. […]

[2] = system: RM-9 prostate cancer cells; experiment: Survival of RM-9 prostate cancer cells under cryotreatment (freezing) stress; type: cell-based, mouse; conditions: high doses
Source text: Experiments have been completed and have expanded the scope of study to (1) include natural agents as part of the formulation and (2) target various stress pathways that may be activated in cells when they are bioprocessed. A variety of agents were used in addition to resveratrol. Of these, Vitamin D3 (i.e. calcitriol) at high doses protects the cells. […] Here, the stress regime included cryotreatment (freezing).

[3] = system: human hepatoma C3A cell lines; experiment: C3A cells three days under optimal culture conditions with FR-234 (alamarBlue); type: cell-based; conditions: highest dose, 100 μg/mL; three days at 37° C., 5% CO2
Experimental: FIG. 7 assesses the effect of the stress modulator, resveratrol (FR-234), exposure for three days under optimal culture conditions in human hepatoma C3A cell lines. In this graph, C3A cells were stored for three days under optimal culture conditions (37° C., 5% CO2) with a range of FR-234 doses. Cells were removed from storage after three days. Storage solutions were replaced with fresh culture media and viability was assessed at 1, 2, and 3 days post-storage using the metabolic activity indicator, alamarBlue.

[4] = system: human lung fibroblasts (IMR-90); experiment: Cold exposure of human lung fibroblasts (IMR-90); type: cell-based
Experimental: Preliminary studies into Unfolded Protein Response (UPR) pathways in cell death associated with cell stress has provided promising results. The UPR activator, tunicamycin, was applied in a thermal stress regime. In FIG. 5, human lung fibroblasts (IMR-90) were exposed to the cold (4° C.) in cell culture media, Viaspan (with and without tunicamycin), or ViaSpan with DMSO (carrier solution for tunicamycin). The DMSO control acts as a chemical chaperone. It was hypothesized that the addition of tunicamycin would result in an increased level of cell death following thermal stress.
With this discovery, additional studies were conducted under a more stressful thermal regime designed to completely destroy all cells. […] In subsequent studies, tunicamycin was added subsequent to (rather than during) the cold stress period and compared to samples without addition. (See FIG. 5).
FIG. 5 also depicts the viability of human lung fibroblasts (IMR-90) following two days of cold exposure with the addition of resveratrol (FR234). […] Yet, when tunicamycin is added during the recovery phase, this agent has the predicted lethal effect as described in the UPR literature.

[5] = system: primary human hepatocytes; experiment: Hypothermic stress of primary human hepatocytes with supplements; type: cell-based; conditions: hypothermic exposure at 4° C.
Experimental: (§1) Thermal Stress Regime: Cells were seeded into 96-well tissue culture plates (13,000 cells per well) and cultured for 24 hours into a monolayer. Culture media was decanted from experimental plates and replaced with 100 μl/well of the pre-cooled (4° C.) solution (complete growth media, HBSS with calcium and magnesium, ViaSpan, or OptiSol). Cultures were maintained at 4° C. for 18 hours to 9 days. Following cold storage, the media were decanted, replaced with 100 μl/well of room temperature (˜25° C.) complete culture media and then placed into standard culture conditions (37° C., 5% CO2) for recovery and assessment.
(§2) Cell Viability Assay: To assess cell viability the metabolic activity assay, alamarBlue™ (Invitrogen) was utilized. Cell culture medium was decanted from the 96-well plates and 100 μl/well of the working alamarBlue™ solution (1:20 dilution in HBSS) was applied. Samples were then incubated for 60 minutes (±1 min) at 37° C. in the dark. The fluorescence levels were analyzed using a Tecan SPECTRAFluorPlus plate reader (TECAN, Austria GmbH). Relative fluorescence units were converted to a percentage compared to normothermic controls set at 100%. Readings were taken immediately following removal from hypothermic storage as well as 24 and 48 hours of recovery.
As such, in FIG. 20, primary human hepatocytes were then subjected to the same hypothermic stress paradigm. […]

[6] = system: human hepatocytes; experiment: Hypoxic normothermic stress of hepatocytes with supplements; type: cell-based
Experimental: (§3) As an example, hepatocytes and C3A cells were placed under hypoxic conditions […] (normothermic incubation) in various commercial media with and without salubrinal or resveratrol. As with the cold thermal stress model, through the application of the current invention, preferential selection of either cell population was possible. The table in FIG. 10 summarizes the representative response of the various liver cells when placed into the two stress model conditions of thermal and hypoxic stress.
(§4) Stress Regime 2—Hypoxia: Cells were held at 37° C. in an incubator with reduced levels of O2 for a 24 hour period. Two hypoxia models were utilized including increased CO2 levels providing for an 80% air: 20% CO2 ratio (versus standard 95% air: 5% CO2) as well as limited gas exchange using isolated environmental chambers. This procedure is designed to model various intervals of suboptimal culture conditions associated with cell processing and utilization.

[7] = system: rat primary hepatocytes; experiment: Hypothermic stress of rat primary hepatocytes with supplements; type: cell-based
Experimental: as §1, §2
In FIG. 19, the C3A cells were then substituted with rat primary hepatocytes. […]

[8] = system: C3A, human liver cancer cells; experiment: Hypoxic normothermic stress of C3A cells with supplements; type: cell-based; conditions: normothermic hypoxic stress regime
Experimental: as §3, §4

[9] = system: human corneal endothelial cells (HCECs); experiment: Cell death populations in HCECs after cold storage (flow cytometry, fluorescence microscopy); type: cell-based
Experimental: Fluorescence Microscopy: Samples in 96-well plates were assessed for the presence of live, necrotic or apoptotic cells through triple labeling using Hoechst [81 μM], propidium iodide [9 μM], and Y oPro-1 [0.8 μM] (Molecular Probes, Eugene, Oreg.), respectively. Probes were added to samples and incubated in the dark for 20 minutes prior to imaging. To assess membrane integrity a dual label of calcein-AM [4 μM] and propidium iodide [9 μM] was utilized. Dual label probes were added to the samples and incubated for 30 minutes in the dark. All fluorescence images of labeled cells were obtained at 1, 4, 8 and 24 hours post-storage using a Zeiss Axiovert 200 fluorescent microscope with the AxioVision 4 software (Zeiss, Germany).
Flow Cytometric Analysis: Counts of the unlabeled (live), necrotic (PI [1.5 μM]) and apoptotic (YOPRO-1 [0.1 μM]) labeled cells were obtained using microfluidic flow cytometry (Millipore). Probes were added to each sample and incubated in the dark for 20 minutes prior to cell collection. Counts of cells with polarized and depolarized mitochondria (JC-1 [7.7 μM]) were also obtained via microfluidic flow cytometry. Samples were labeled, collected and analyzed at 1, 4, 8 and 24 hours post-storage. Analysis was performed using the CytoSoft 5.2 software for the Guava PCA-96 system.
Following the observation of differences in viability through the targeted modulation of the UPR, we next analyzed what effect this targeted approach has on the level and timing of cell death following hypothermic storage. HCECs were held at 4° C. for 24 hours in various solutions (CGM, HBSS, ViaSpan and OptiSol) with and without the addition of 25 μM salubrinal and assessed via microfluidic flow cytometry and fluorescence microscopy. Analysis of the apoptotic and necrotic populations was conducted to examine the effect UPR inhibition (25 μM salubrinal) had on cell death populations post-storage.

[10] = system: human corneal endothelial cells (HCECs); experiment: Viability of HCECs after hypothermic storage (alamarBlue); type: cell-based; conditions: for viability at 10 µM / viability at 25 µM: Homo sapiens, HCEC; for viability at 10 µM: 10 μM salubrinal; for survival difference between ViaSpan with and without tunicamycin: 3 days at 4° C.
Experimental: as §1, §2
Chemical Additions: Modulation of the UPR was accomplished through the use of salubrinal (UPR-specific inhibitor), tunicamycin (UPR-specific inducer), resveratrol, AKT, Vitamin D3, caspase and MPTP inhibitors, among others. For instance, salubrinal (EMD Chemicals Inc., Gibbstown, N.J.) was added to media at working concentrations of 10 and 25 μM immediately before utilization. Tunicamycin (EMD Chemicals Inc.) was added to ViaSpan at a working concentration of 2 ug/mL immediately prior to use. All chemicals were diluted in water, ethanol, or DMSO prior to utilization and DMSO controls were conducted to ensure no effect of the dilution vehicle.

Molecule: CC(=O)N[C@@H](CS)C(=O)O [NAC, N-Acetyl-Cysteine]
- effect on cell division in extended post-stress culture [1]: no downstream negative effect on cell division
- overall increase in sample recovery ([1]; 10% DMSO condition, supplement for first 24 hours post-processing): ~20%

Molecule: C=C1/C(=C\C=C2/CCC[C@]3(C)[C@@H]([C@H](C)CCCC(C)(C)O)CC[C@@H]23)C[C@@H](O)C[C@@H]1O [Vitamin D3, calcitriol]
- protection of cells under stress regime [2]: protects cells

Molecule: Oc1ccc(C=Cc2cc(O)cc(O)c2)cc1 [resveratrol]
- effect on sample viability [3]: profound negative effect on sample viability
- effect of resveratrol on viability ([4]; two days of cold exposure): positive effects
- protection of human hepatocytes from cold stress / cell viability [5]: able to completely protect; also recorded: extended
- cell viability of hepatocytes ([6]; normothermic hypoxic stress regime): not for hepatocytes
- protection of rat primary hepatocytes from hypothermic stress [7]: very effectively protected
- cell viability of C3A cells [8]: extended the cell viability for C3A cells

Molecule: O=C(/C=C/c1ccccc1)NC(NC(=S)Nc1cccc2cccnc12)C(Cl)(Cl)Cl (centres unmarked) [salubrinal]
- total cell retention during hypothermic exposure ([9]; 25 μM salubrinal, 24 hours at 4° C.): increased retention of total cells
- levels of apoptosis, inhibited vs uninhibited ([9]; 25 μM salubrinal, 24 hours at 4° C., each time point): elevated
- necrotic populations, UPR inhibited vs uninhibited ([9]; 25 μM salubrinal, 24 hours at 4° C., normalized to normothermic control): similar
- membrane integrity and cellular attachment during recovery ([9]; CGM storage 24 hours, calcein-AM and propidium iodide): marked increase
- cell viability of hepatocytes [6]: extended the cell viability of hepatocytes
- viability over the 48 hour recovery period ([10]; 24 hours at 4° C. in CGM, 25 μM salubrinal): retained
- effect of salubrinal addition on viability ([10]; 24 hours at 4° C. in HBSS and ViaSpan): no differences
- effect of salubrinal supplementation on viability ([10]; 48 hour storage in ViaSpan): no effect
- viability ([10]; 48 hour storage in ViaSpan with salubrinal supplementation): 76.7%
- viability following 2 days of cold storage ([10]; CGM and OptiSol, all samples with and without salubrinal): complete loss in viability
- HCEC tolerance to stress ([10]; FIG. 11, 18 hours of hypothermic storage): improves human corneal endothelial cell (HCEC) tolerance to stress
- increase in cell survival ([10]; HCEC samples experiencing profound cold-induced failure): 2 fold
- viability at 10 µM ([10]; 48 h, 2 days at 4° C. in HBSS, read-out: overall viability): 26.9%
- viability at 25 µM ([10]; 48 h, 2 days at 4° C. in HBSS, 25 μM salubrinal, read-out: overall viability): 37.8%
- viability at 10 µM ([10]; 24 hours at 4° C. in CGM, read-out: post-storage viability): 23.1%
- viability at 25 µM ([10]; 24 hours at 4° C. in CGM, 25 μM salubrinal, read-out: post-storage viability): 28%
- viability at 10 µM ([10]; 24 hours at 4° C. in OptiSol, read-out: post storage viability): 52.3%
- viability at 25 µM ([10]; 24 hours at 4° C. in OptiSol, 25 μM salubrinal, read-out: post storage viability): 53.9%
- protection of rat primary hepatocytes from hypothermic stress ([7]; hypothermic exposure at 4° C.): failed to protect

Molecule: tunicamycin
- cell survival ([4]; post stress addition of tunicamycin (recovery phase)): reduction in cell survival
- thermal tolerance ([4]; tunicamycin in Viaspan during cold (4° C.) exposure): increase in thermal tolerance
- effect of tunicamycin post-cold on samples exposed to resveratrol ([4]; two days of cold exposure): negating the positive effects of resveratrol
- cell survival immediately post-storage ([10]; 3 days at 4° C. in ViaSpan, tunicamycin 2 ug/mL, 0 hours recovery): ~60%
- survival difference between ViaSpan with and without tunicamycin ([10]; 24 hours of recovery): 29.0%
- survival difference between ViaSpan with and without tunicamycin ([10]; 48 hours post-storage): 53.9%
- HCEC survival during the recovery period ([10]; tunicamycin added during cold exposure): significant decrease in HCEC survival
